Laboratory results: patent publication US20230338347A1, “New Use of Inhibitors of the Notch Signalling Pathway” (Cellestia Biotech AG, priority 2020, published 2023)

Tests used:
[1] = Phase I/IIA first-in-human dose escalation: safety and tolerability (adverse events, DLT); settings: in vivo
Source text: […], open-label study investigating the safety, tolerability, pharmacokinetics (PK), pharmacodynamics (PD) and preliminary efficacy of the pan-NOTCH inhibitor 6-(4-Tert-Butylphenoxy)Pyridin-3-Amine in adult patients with locally advanced or metastatic solid tumours or hematologic malignancies.
6-(4-Tert-Butylphenoxy)Pyridin-3-Amine is orally administered and is a small molecule targeting the NOTCH signalling pathway with binding to the NOTCH-specific transcription complex located at the nucleus of cells. The study is divided into two parts with Part A being the dose escalation part of the study to determine the maximum tolerated dose (MTD) or recommended Phase II dose (RP2D). In Part A at least 3, up to 6 patients per dose will participate in the sequentially enrolled dose cohorts. In an additional cohort of approximately 45-50 patients, the safety of the previously determined RP2D will be confirmed (dose confirmatory cohort).
The dosing will be 15, 30, 60, 120, 170, 250, 400, or 600 mg of the 6-(4-Tert-Butylphenoxy)Pyridin-3-Amine monohydrochloride salt or higher per day or alternatively 20, 40, 60, 120, 170, 250, 400, or 600 mg of the 6-(4-Tert-Butylphenoxy)Pyridin-3-Amine monohydrochloride salt or higher per day. Dosing of 15, 30, 60, 120, 170, 250, 400, or 600 mg of the 6-(4-Tert-Butylphenoxy)Pyridin-3-Amine monohydrochloride salt corresponds to dosing of 13, 26, 52, 104, 148, 217, 348, or 522 mg of 6-(4-Tert-Butylphenoxy)Pyridin-3-Amine (free base). Dosing of 20, 40, 60, 120, 170, 250, 400, or 600 mg of the 6-(4-Tert-Butylphenoxy)Pyridin-3-Amine monohydrochloride salt corresponds to dosing of 17, 35, 52, 104, 148, 217, 348, or 522 mg of 6-(4-Tert-Butylphenoxy)Pyridin-3-Amine (free base). For this study, 6-(4-Tert-Butylphenoxy)Pyridin-3-Amine monohydrochloride salt was formulated into a capsule having a drug load of 5, 10, 20, 50 and 100 mg, respectively intended to be administered orally. • Patients will meet the following criteria:
(§1) The primary outcome measures for this study are: • Part A (Escalation): Dose limiting toxicities (DLT) • Part B (Expansion): Best overall response according to the respective tumour assessment criteria for the different cancer indications.
Fourty-one patients (median age 55 years, range 25 to 76 years) have been treated with 6-(4-Tert-Butylphenoxy)Pyridin-3-Amine in the dose escalation part of the clinical study at oral doses of 15 mg-600 mg QD (once a day). […] Cumulatively, a total of 352 AEs has occurred in 41 patients since study initiation, of which 132 AEs […] in 31 patients were considered related to the study drug. The treatment-related treatment-emergent AEs (TEAEs) most commonly reported (≥10% of patients) were nausea (24%), diarrhea (20%), dyspepsia (15%), fatigue (12%), and vision blurred (12%).

[2] = test system: adenoid cystic carcinoma (ACC); test: Phase I/IIA study: preliminary clinical efficacy (best response, disease control rate); assay type: in vivo, human; settings: for Disease control rate (CR, PR or SD / patients treated): 19 ACC patients
Source text: Each lane represents one patient and the length of the lane represents the duration of treatment. […] Disease control rate of 19 patients with adenoid cystic carcinoma at 8 weeks and 20 weeks was 79% and 58%, respectively (calculated as number of patients with complete or partial response, or stable disease divided by the number of patients with that indication treated). Abbreviations: SD, stable disease; PD, progressive disease; NA, not applicable).
as §1
The Notch status of the other patients is under investigation. Disease control rate (DCR) of 19 ACC patients at 8 weeks and 20 weeks was 79% and 58%, respectively (DCR defined as number of patients with CR, PR, or SD divided by the number of patients treated).

[3] = test system: DTX-1 (Deltex E3 Ubiquitin Ligase 1); test: Compassionate use T-ALL patient: DTX-1 gene expression by RTqPCR; assay type: in vivo, human; settings: at C2D15; time-dependent; target dose 500 mg once daily
Procedure: DTX-1 is a positive regulator of NOTCH signalling pathway (C1D01_pre: Cycle 1 Day 1 predose; C1D01_1 h: Cycle 1 Day 1 1 hour post dose; C1D21_1 h: Cycle 1 Day 21 1 hour post dose; C2D15_1 h: Cycle 2 Day 15 1 hour post dose).
Administration of 6-(4-Tert-Butylphenoxy)Pyridin-3-Amine induced a potent time-dependent downregulation of DTX-1 (Deltex E3 Ubiquitin Ligase 1) up to 95% at C2D15, indicative of NOTCH pathway downregulation. DTX-1 is a positive regulator of NOTCH signalling pathway
Blood samples for PBMCs and cytokine analysis were collected using BD Vacutainer® Evacuated Blood Collection Tubes, and immediately centrifuged to separate the cell and plasma compartments for further analysis. Gene expression profiling was performed by standard RTqPCR. Cytokine analysis in the plasma compartment was performed with a standard commercially available ELISA method.

Compound: CC(C)(C)c1ccc(Oc2ccc(N)cn2)cc1 [6-(4-Tert-Butylphenoxy)Pyridin-3-Amine]
- AEs considered related to the study drug, share of all AEs ([1]; human): 37.2%
- number of AEs considered related to the study drug ([1]; human): 132
- number of patients with AEs considered related to the study drug ([1]; human): 31
- number of serious adverse events (SAEs) ([1]; human): 12
- related AE of tachycardia ([1]; human): one related AE of tachycardia Grade 1
- serious adverse events, share of all AEs ([1]; human): 3.4%
- total number of AEs ([1]; human): 352
- treatment-related TEAE diarrhea ([1]; human): 20%
- treatment-related TEAE dyspepsia ([1]; human): 15%
- treatment-related TEAE fatigue ([1]; human): 12%
- treatment-related TEAE nausea ([1]; human): 24%
- treatment-related TEAE vision blurred ([1]; human): 12%
- QTc prolongation [1]: no QTc prolongations
- SAEs considered related to study drug [1]: one SAE was considered related to study drug
- cardiotoxicity signal [1]: no signal of cardiotoxicity
- deaths due to drug-related AEs [1]: No deaths due to drug-related AEs
- dose limiting toxicity (DLT) [1]: one dose limiting toxicity
- dose relation of AEs over the dose cohorts [1]: no evidence of dose relation
- skin phototoxicity or eye mydriasis events [1]: No events of skin phototoxicity or eye mydriasis
- number of ACC patients with radiologically confirmed stable disease ([2]; 4 of them with Notch activating mutation): Ten
- Disease control rate (CR, PR or SD / patients treated) ([2]; at 8 weeks): 79%
- Disease control rate (CR, PR or SD / patients treated) ([2]; at 20 weeks): 58%
- best response ([2]; at doses showing target engagement): durable stable disease
- downregulation of DTX-1 [3]: up to 95%
